Test results reported in US20180049995A1, “HIF-2-ALPHA INHIBITOR POLYMORPHS” (PELOTON THERAPEUTICS, INC., priority 2015, published 2018).
Values after ≈ are worked out from the molar mass of the structure shown. Where two headings read alike, the source gives them in different places.

How the values were obtained:
Type in all cases: physicochemical
[1] = Competitive slurries of Form A and Form B (XRPD)
Procedure: Slurry experiments were performed at ambient, 40° C. and 60° C. temperatures using 2-propanol, tert-butyl methyl ether, toluene and ethanol as solvents.
(§1) Saturated solutions of 2-propanol, tert-butylmethyl ether, toluene and ethanol were prepared at ambient temperature. ca. 25 mg of Form A and Form B were weighed into a vial to create 50 mg 50:50 wt/wt mixture of the two batches. The appropriate solvent was added to the mixture and the resulting slurry was stirred for 48 h at ambient temperature, before the solid was analyzed by XRPD.
as §1, with “40° C.” for “ambient temperature.”, “40° C.,” for “ambient temperature,”
as §1, with “2-propanol,” for “2-propanol, tert-butylmethyl ether,”, “60° C.” for “ambient temperature.”, “60° C.,” for “ambient temperature,”

[2] = Aqueous solubility (24 h mixing, filtrate by HPLC); details: thermodynamic from solid
Procedure: The aqueous solubility of several lots of Forms A and B were measured. […] The sample was filtered using a syringe filter and the filtrate was analyzed by HPLC to determine the solubility. The remaining solid was analysis by XRPD to determine its form and crystallinity. Solubility data for micronized materials was also collected. As noted in Table 3, slight variations in aqueous solubility were noted, particularly for the micronized samples.

[3] = Solubility screen for Form A in organic solvents
Procedure: A solubility screen for Form A was conducted in 24 solvents. About 5 mg of Form A was placed in each of 24 vials and 5 volume aliquots of the appropriate solvent systems listed in Table 1 were added to the appropriate vial. Between each addition, the mixture was checked for dissolution by visual inspection, and if no dissolution was apparent, the mixture was heated to ca. 40° C. and checked again. This procedure was continued until dissolution was observed or until 100 volumes of solvent had been added.
Form A appeared to be highly soluble (above ˜100 mg/mL) in a number of solvents, […] diisopropyl ether, heptane and toluene. These solvents were identified as possible anti-solvents for the primary polymorph screen. Additional solvent/water mixtures suitable for freeze drying were tested.

[4] = 7-Day stability study (XRPD and HPLC after storage)
Procedure: The stability of Forms A and B were measured following storage for 7-days at ambient, 40° C./75% RH and 80° C. About 15 mg of Forms A and B were individually placed in each of 3 vials and stored uncapped for 7 days under the following conditions; ambient, 40° C./75% RH, 80° C. Following the 7 days, XRPD analysis was performed on each sample to determine its form and crystallinity and HPLC analysis was conducted to determine the sample purity.

CS(=O)(=O)c1ccc(Oc2cc(F)cc(C#N)c2)c2c1[C@H](O)C(F)(F)C2 (mixture of isomers) [50:50 wt/wt mixture, (S)-3-((2,2-difluoro-1-hydroxy-7-(methylsulfonyl)-2,3-dihydro-1H-inden-4-yl)oxy)-5-fluorobenzonitrile]
Form by XRPD after competitive slurry ([1]; 2-Propanol, 40° C., 48 h): Form B
Form by XRPD after competitive slurry ([1]; 2-Propanol, 60° C., 48 h, footnote: Primarily Form B): Mixture^a
Form by XRPD after competitive slurry ([1]; 2-Propanol, Ambient, 48 h): Form B
Form by XRPD after competitive slurry ([1]; Ethanol, 40° C., 48 h): Form B
Form by XRPD after competitive slurry ([1]; Ethanol, 60° C., 48 h, footnote: primarily Form A with some Form B present): Mixture^b
Form by XRPD after competitive slurry ([1]; Ethanol, Ambient, 48 h): Form B
Form by XRPD after competitive slurry ([1]; Ethanol, Repeat 60° C., only Form B observed): Form B^b
Form by XRPD after competitive slurry ([1]; TBME, 40° C., 48 h): Form B
Form by XRPD after competitive slurry ([1]; TBME, Ambient, 48 h): Form B
Form by XRPD after competitive slurry ([1]; Toluene, 40° C., 48 h): Form B
Form by XRPD after competitive slurry ([1]; Toluene, 60° C., 48 h): Form B
Form by XRPD after competitive slurry ([1]; Toluene, Ambient, 48 h): Form B

CS(=O)(=O)c1ccc(Oc2cc(F)cc(C#N)c2)c2c1[C@H](O)C(F)(F)C2 [Form A, (S)-3-((2,2-difluoro-1-hydroxy-7-(methylsulfonyl)-2,3-dihydro-1H-inden-4-yl)oxy)-5-fluorobenzonitrile]
solubility at 24 h ([2]; fassif, Fasted State Simulated Small Intestinal Fluid, read-out: Aqueous Solubility FaSSIF): 0.063 mg/mL (≈ 0.164 mM)
solubility at 24 h ([2]; fessif, Fed State Simulated Small Intestinal Fluid, read-out: Aqueous Solubility FeSSIF): 0.086 mg/mL (≈ 0.224 mM)
solubility at 24 h ([2]; pH 1.2, simulated gastric fluid, pH 1.2, read-out: Aqueous Solubility pH 1.2): 0.029 mg/mL (≈ 0.0756 mM)
solubility at 24 h ([2]; pH 6.5, aqueous buffer, pH 6.5, read-out: Aqueous Solubility pH 6.5): 0.025 mg/mL (≈ 0.0652 mM)
solubility at 24 h ([2]; pH 7.4, aqueous buffer, pH 7.4, read-out: Aqueous Solubility pH 7.4): 0.026 mg/mL (≈ 0.0678 mM)
solubility ([3]; 40 °C, organic solvent or mixture, thermodynamic from solid, 1,4-Dioxane, solubility observed at 40° C., read-out: Solubility): > 200 mg/mL
solubility ([3]; 40 °C, organic solvent or mixture, thermodynamic from solid, Acetonitrile, solubility observed at 40° C., read-out: Solubility): > 200 mg/mL
solubility ([3]; 40 °C, organic solvent or mixture, thermodynamic from solid, Diisopropyl ether, solubility observed at 40° C., read-out: Solubility): > 2 mg/mL
solubility ([3]; 40 °C, organic solvent or mixture, thermodynamic from solid, Methyl isobutyl ketone, solubility observed at 40° C., read-out: Solubility): 160 mg/mL (≈ 417 mM)
Solubility in words ([3]; THF:Water (50%), separation into API-saturated THF layer and API-free aqueous layer observed): Sufficient solubility
solubility ([3]; aqueous with cosolvent or surfactant or cyclodextrin, thermodynamic from solid, Acetone: Water (60%), read-out: Solubility): < 2 mg/mL
solubility ([3]; aqueous with cosolvent or surfactant or cyclodextrin, thermodynamic from solid, Ethanol: Water (50%), read-out: Solubility): < 2 mg/mL
solubility ([3]; aqueous with cosolvent or surfactant or cyclodextrin, thermodynamic from solid, Methanol: Water (50%), read-out: Solubility): < 2 mg/mL
solubility ([3]; aqueous with cosolvent or surfactant or cyclodextrin, thermodynamic from solid, THF: Water (50%), read-out: Solubility): 100 mg/mL (≈ 261 mM)
solubility ([3]; organic solvent or mixture, thermodynamic from solid, 2-Propanol, read-out: Solubility): 9 mg/mL (≈ 23.5 mM)
solubility ([3]; organic solvent or mixture, thermodynamic from solid, Acetone: Water (5%), read-out: Solubility): > 200 mg/mL
solubility ([3]; organic solvent or mixture, thermodynamic from solid, Acetone: Water (20%), read-out: Solubility): > 200 mg/mL
solubility ([3]; organic solvent or mixture, thermodynamic from solid, Acetone, read-out: Solubility): > 200 mg/mL
solubility ([3]; organic solvent or mixture, thermodynamic from solid, Acetonitrile: Water (10%), read-out: Solubility): > 200 mg/mL
solubility ([3]; organic solvent or mixture, thermodynamic from solid, Dichloromethane, read-out: Solubility): 80 mg/mL (≈ 209 mM)
solubility ([3]; organic solvent or mixture, thermodynamic from solid, Dimethylformamide, read-out: Solubility): > 200 mg/mL
solubility ([3]; organic solvent or mixture, thermodynamic from solid, Dimethylsulfoxide, read-out: Solubility): 160 mg/mL (≈ 417 mM)
solubility ([3]; organic solvent or mixture, thermodynamic from solid, Ethanol, read-out: Solubility): 60 mg/mL (≈ 157 mM)
solubility ([3]; organic solvent or mixture, thermodynamic from solid, Ethyl acetate, read-out: Solubility): 160 mg/mL (≈ 417 mM)
solubility ([3]; organic solvent or mixture, thermodynamic from solid, Heptane, read-out: Solubility): < 2 mg/mL
solubility ([3]; organic solvent or mixture, thermodynamic from solid, Isopropyl acetate, read-out: Solubility): 90 mg/mL (≈ 235 mM)
solubility ([3]; organic solvent or mixture, thermodynamic from solid, Methanol, read-out: Solubility): 90 mg/mL (≈ 235 mM)
solubility ([3]; organic solvent or mixture, thermodynamic from solid, Methyl acetate, read-out: Solubility): > 200 mg/mL
solubility ([3]; organic solvent or mixture, thermodynamic from solid, Methylethyl ketone, read-out: Solubility): > 200 mg/mL
solubility ([3]; organic solvent or mixture, thermodynamic from solid, N-Methyl-2-pyrrolidone, read-out: Solubility): 130 mg/mL (≈ 339 mM)
solubility ([3]; organic solvent or mixture, thermodynamic from solid, Tetrahydrofuran, read-out: Solubility): > 200 mg/mL
solubility ([3]; organic solvent or mixture, thermodynamic from solid, Toluene, read-out: Solubility): > 2 mg/mL
solubility ([3]; organic solvent or mixture, thermodynamic from solid, in a number of solvents, read-out: Solubility (highly soluble)): > 100 mg/mL
solubility ([3]; organic solvent or mixture, thermodynamic from solid, tert-Butylmethyl ether, read-out: Solubility): 35 mg/mL (≈ 91.3 mM)
Solubility in words ([3]; water (hydrophobic behavior observed), diisopropyl ether, heptane and toluene): insoluble
solubility ([3]; water, thermodynamic from solid, Water, read-out: Solubility): < 2 mg/mL
Crystallinity after storage ([4]; 7 days at 80° C.): appeared to lose crystallinity
Form change by XRPD after storage ([4]; 7 days uncapped, ambient, 40° C./75% RH, 80° C.): no signs of form change
Purity by HPLC after storage ([4]; 7 days, over all three conditions (ambient, 40° C./75% RH, 80° C.)): 99.0%

CS(=O)(=O)c1ccc(Oc2cc(F)cc(C#N)c2)c2c1[C@H](O)C(F)(F)C2 [Form B, (S)-3-((2,2-difluoro-1-hydroxy-7-(methylsulfonyl)-2,3-dihydro-1H-inden-4-yl)oxy)-5-fluorobenzonitrile]
Thermodynamic stability of the form (conclusion of competitive slurries) ([1]; all solvents, ambient, 40° C. and 60° C.): the most thermodynamically form
Purity by HPLC after storage ([4]; 7 days at 80° C., drop from 99.7%): 99.3%
Crystallinity after storage ([4]; 7 days, over the three conditions (ambient, 40° C./75% RH, 80° C.)): maintained crystallinity
